According to ChEMBL document CHEMBL1127208, “Centaureidin, a cytotoxic flavone from Polymnia fruticosa, inhibits tubulin polymerization” (Bioorg Med Chem Lett, 1993):

Legend:
[1] = target: Tubulin alpha chain (Sus scrofa) (UniProt P02550); assay: Tested for the inhibition using the binding of 5 uM [3H]colchicine to purified tubulin at 37 degree Centigrade
[2] = Tested for the cytotoxicity concentration in CA46 burkitt lymphoma cells; type: functional, cell-based; settings: Homo sapiens
Tubulin alpha chain = Tubulin alpha chain (Sus scrofa, UniProt P02550); assay: Tested for 50 % inhibition of tubulin polymerization by turbidimetric assay
Sequence of Tubulin alpha chain (P02550 whole entry, looked up): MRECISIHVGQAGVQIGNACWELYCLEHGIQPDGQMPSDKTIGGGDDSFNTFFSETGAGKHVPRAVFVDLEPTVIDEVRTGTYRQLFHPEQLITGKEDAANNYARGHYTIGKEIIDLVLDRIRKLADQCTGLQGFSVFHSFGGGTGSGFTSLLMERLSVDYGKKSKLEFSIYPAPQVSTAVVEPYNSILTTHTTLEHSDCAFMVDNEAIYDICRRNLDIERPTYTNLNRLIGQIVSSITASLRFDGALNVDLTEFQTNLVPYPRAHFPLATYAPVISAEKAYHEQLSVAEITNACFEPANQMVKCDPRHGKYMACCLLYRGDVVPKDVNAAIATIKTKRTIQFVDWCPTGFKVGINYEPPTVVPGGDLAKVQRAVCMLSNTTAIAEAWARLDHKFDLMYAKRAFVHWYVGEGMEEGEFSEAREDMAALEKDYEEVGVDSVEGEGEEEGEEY

Sequence of Tubulin alpha chain (Sus scrofa) (P02550 whole entry, looked up): as above

Which inhibition [1] does the source give for `COc1cc([C@@H]2c3cc4c(cc3[C@H](O)[C@H]3COC(=O)[C@H]23)OCO4)cc(OC)c1OC` here?
Its inhibition is 84%.

For `COc1ccc(-c2oc3cc(O)c(OC)c(O)c3c(=O)c2OC)cc1O` [CENTAUREIDIN], which IC50 [2] is on record?
Its IC50 is 200 nM.

What about the IC50 (Tubulin alpha chain) of the same molecule?
Its IC50 is 3000 nM.
